Measured values published in US20050209278A1, “Piperidinyl- and piperazinyl-sulfonylmethyl hydroxamic acids and their use as protease inhibitors” (priority 2002, published 2005).
Structures can show the parent of a compound that is named as a salt.

Key:
MMP-9 = target: T1, MMP-9 (Homo sapiens, UniProt P14780); test: In vitro MMP inhibition, Ki determination (fluorogenic substrate II); assay type: biochemical; details: human recombinant enzyme; 4 μM substrate II; room temperature, 1 hr
T1 construct: made in house; host or cells: MMP-9-transfected HT1080 cells (spent media)
Experimental: (§1) Several hydroxamic acids and salts thereof were analyzed in in vitro assays to determine their ability to inhibit the MMP cleavage of peptide substrates. […] and IC50 constants were calculated from the assayed hydroxamic acid-MMP interactions.
(§2) Human recombinant MMP-1, MMP-2, MMP-9, MMP-13, and MMP-14 were used in this assay. All enzymes were prepared in Assignee's laboratories following usual laboratory procedures. Protocols for the preparation and use of these enzymes are available in the scientific literature. See, e.g., Enzyme Nomenclature (Academic Press, San Diego, Calif., 1992) (and the citations therein). See also, Freije et al., “Molecular cloning and expression of collagenase-3, a novel human matrix metalloproteinase produced by breast carcinomas,” J Biol. Chem., 269(24), 16766-16773 (1994).
The MMP-9 proenzyme was purified by gelatin Sepharose chromatography from spent media of MMP-9-transfected HT1080 cells provided by Dr. Howard Welgus of Washington University (St. Louis, Mo.).
(§3) All MMPs were activated using 4-aminophenylmercuric acetate (“APMA”, Sigma Chemical, St. Louis, Mo.) or trypsin. MMP-9 also was activated using human recombinant MMP-3 (purified in Assignee's laboratory following standard cloning and purification techniques).
(§4) Two fluorogenic, methoxycoumarin-containing polypeptide substrates were used in the MMP inhibition assays: [drawing 427] Here, “Dpa” is 3-(2,4-dinitrophenyl)-L-2,3-diaminopropionyl group, and “MCA” is 7-methoxycoumarin-4-yl acetyl. Substrate (I) was purchased from Baychem (Redwood City, Calif.), and substrate II was prepared Assignee's laboratory. Substrate I was used in the IC50 determination assays, while substrate II was used in the Ki determination assays. In the absence of MMP inhibitory activity, either substrate is cleaved at the Gly-Leu peptide bond. This cleavage separates the highly fluorogenic peptide from the 2,4-dinitrophenyl quencher, thus resulting in increase of fluorescent intensity.
(§5) The stock solutions of the assayed hydroxamic acids (or salts thereof) were prepared in 1% dimethyl sulfoxide (DMSO). These stock solutions were diluted in Buffer A (100 mM Tris-HCl, 100 mM NaCl, 10 mM CaCl2, 0.05% polyoxyethylene 23 lauryl ether, pH 7.5) to obtain solutions with different hydroxamic acid concentrations, i.e., assay solutions with different concentrations of the assayed MMP inhibitory compound. The experiment controls contained the same amount of Buffer A/DMSO as the assayed sample, but contained no hydroxamic acid (or salt thereof).
The assays from which the Ki determinations were made were performed as follows. The assayed hydroxamic acid samples were incubated in separate wells of untreated white polystyrene plates (Nunc Nalgene International, Rochester, N.Y.), and analyzed on a Tecan SpectraFlour Plus plate reader. The excitation wavelength was 330 nm, and the emission wavelength—420 nm. All samples (assayed hydroxamic acids and controls) were incubated in separate plate wells at room temperature for 1 hr in the presence of 4 μM of MMP substrate (II). In the absence of MMP inhibitory activity, substrate II was cleaved at the Gly-Leu bond resulting in an increase of relative fluorescence. Inhibition was observed as a reduced rate of this increase in relative fluorescence. The various hydroxamic acids were analyzed using a single low enzyme concentration with a single substrate concentration fixed at or below the Km. This protocol is a modification of method by Knight et al., FEBS Lett., 296(3), 263-266 (1992). Apparent inhibitory constants were determined by non-linear regression of reaction velocity as a function of inhibitor and enzyme concentration using Morrison's equation, as described by Kuzmic, Anal. Biochem. 286, 45-50 (2000). Modifications were made in the non-linear regression method to allow a common control reaction rate and effective enzyme concentration to be shared between all dose-response relationships on a given assay plate. […]

MMP-2 = target: T2, MMP-2 (Homo sapiens, UniProt P08253); test: as above; assay type: biochemical; details: human recombinant enzyme; 4 μM substrate II; room temperature, 1 hr; read-out: MMP-2 Ki
T2 construct: made in house; host or cells: MMP-2-transfected p2AHT2 cells
T2 sequence (P08253 110-660): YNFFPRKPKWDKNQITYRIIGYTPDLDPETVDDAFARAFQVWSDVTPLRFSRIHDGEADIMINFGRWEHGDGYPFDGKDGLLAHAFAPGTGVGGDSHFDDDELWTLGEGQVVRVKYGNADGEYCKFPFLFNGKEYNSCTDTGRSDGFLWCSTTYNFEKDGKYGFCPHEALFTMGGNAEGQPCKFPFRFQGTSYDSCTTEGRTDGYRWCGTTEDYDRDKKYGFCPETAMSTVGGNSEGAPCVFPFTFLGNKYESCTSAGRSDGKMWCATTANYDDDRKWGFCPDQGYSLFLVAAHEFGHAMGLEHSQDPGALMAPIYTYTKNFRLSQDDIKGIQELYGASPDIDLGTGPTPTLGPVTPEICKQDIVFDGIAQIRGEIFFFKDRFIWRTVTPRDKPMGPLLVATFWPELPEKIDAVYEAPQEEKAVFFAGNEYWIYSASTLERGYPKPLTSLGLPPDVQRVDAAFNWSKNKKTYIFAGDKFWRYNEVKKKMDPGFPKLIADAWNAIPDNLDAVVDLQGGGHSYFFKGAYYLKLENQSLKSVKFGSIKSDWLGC
Experimental: as §1, §2
The MMP-2 proenzyme was purified by gelatin Sepharose chromatography from MMP-2-transfected p2AHT2 cells provided by Dr. Gregory Goldberg of Washington University (St. Louis, Mo.).
as §3, §4, §5
The assays from which the Ki determinations were made were performed as follows. The assayed hydroxamic acid samples were incubated in separate wells of untreated white polystyrene plates (Nunc Nalgene International, Rochester, N.Y.), and analyzed on a Tecan SpectraFlour Plus plate reader. The excitation wavelength was 330 nm, and the emission wavelength—420 nm. All samples (assayed hydroxamic acids and controls) were incubated in separate plate wells at room temperature for 1 hr in the presence of 4 μM of MMP substrate (II). In the absence of MMP inhibitory activity, substrate II was cleaved at the Gly-Leu bond resulting in an increase of relative fluorescence. Inhibition was observed as a reduced rate of this increase in relative fluorescence. The various hydroxamic acids were analyzed using a single low enzyme concentration with a single substrate concentration fixed at or below the Km. This protocol is a modification of method by Knight et al., FEBS Lett., 296(3), 263-266 (1992). Apparent inhibitory constants were determined by non-linear regression of reaction velocity as a function of inhibitor and enzyme concentration using Morrison's equation, as described by Kuzmic, Anal. Biochem. 286, 45-50 (2000). […] Since the substrate concentration was chosen to be at or below the Km, the apparent Ki's from this analysis were reported as Ki's without correction for the influence of substrate.

T1 sequence (P14780 107-707 limits assumed): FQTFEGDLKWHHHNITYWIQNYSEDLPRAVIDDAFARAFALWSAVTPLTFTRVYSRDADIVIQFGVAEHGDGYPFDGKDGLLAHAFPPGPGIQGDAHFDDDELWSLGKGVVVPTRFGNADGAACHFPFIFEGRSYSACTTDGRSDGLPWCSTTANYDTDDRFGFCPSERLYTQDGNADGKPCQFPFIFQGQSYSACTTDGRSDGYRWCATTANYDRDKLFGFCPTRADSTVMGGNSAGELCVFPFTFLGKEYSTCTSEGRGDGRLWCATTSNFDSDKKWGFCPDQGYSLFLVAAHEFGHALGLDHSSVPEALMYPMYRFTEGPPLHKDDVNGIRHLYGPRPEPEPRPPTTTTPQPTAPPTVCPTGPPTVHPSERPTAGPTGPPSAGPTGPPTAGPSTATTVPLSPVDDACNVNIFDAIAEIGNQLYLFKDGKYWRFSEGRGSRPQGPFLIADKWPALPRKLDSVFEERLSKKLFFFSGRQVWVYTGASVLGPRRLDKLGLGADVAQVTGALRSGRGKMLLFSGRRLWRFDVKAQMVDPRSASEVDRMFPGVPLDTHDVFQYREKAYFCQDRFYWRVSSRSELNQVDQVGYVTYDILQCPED

Row | Structure (SMILES) | Ki (MMP-9) [nM] | Ki (MMP-2) [nM]
1 | CCCCc1cnc(N2CCN(S(=O)(=O)C3(C(=O)NO)CCOCC3)CC2)cn1 [Example 1, 4-{[4-(5-butylpyrazin-2-yl)piperazin-1-yl]sulfonyl}-N-hydroxytetrahydro-2H-pyran-4-carboxamide Dihydrochloride] | 0.696 | 1.52
2 | O=C(NO)C1(S(=O)(=O)N2CCN(c3ccc(OCC(F)(F)F)cc3)CC2)CCOCC1 [Example 2, N-hydroxy-4-({4-[4-(2,2,2-trifluoroethoxy)phenyl]piperazin-1-yl}sulfonyl)tetrahydro-2H-pyran-4-carboxamide Hydrochloride] | 1.28 | 0.74
3 | CCOc1ccc(N2CCN(S(=O)(=O)C3(C(=O)NO)CCOCC3)CC2)cc1 [Example 3, 4-{[4-(4-ethoxyphenyl)piperazinyl]sulfonyl}perhydro-2H-pyran-4-carbohydroxamic Acid] | 0.93 | 0.59
4 | O=C(NO)C1(S(=O)(=O)N2CCN(c3ccc(OC(F)(F)C(F)F)cc3)CC2)CCOCC1 [Example 4, 4-({4-[4-(1,1,2,2-tetrafluoroethoxy)phenyl]piperazinyl}sulfonyl)perhydro-2H-pyran-4-carbohydroxamic Acid] | 0.739 | 0.104
5 | CCCCc1ccc(N2CCN(S(=O)(=O)C3(C(=O)NO)CCN(CCOC)CC3)CC2)cc1 [Example 5, 4-{[4-(4-butylphenyl)piperazin-1-yl]sulfonyl}-N-hydroxy-1-(2-methoxyethyl)piperidine-4-carboxamide Dihydrochloride] | 0.108 | 0.62
6 | CCCCCc1ccc(N2CCN(S(=O)(=O)C3(C(=O)NO)CCN(CCOC)CC3)CC2)cc1 [Example 6, N-Hydroxy-1-(2-methoxyethyl)-4-{[4-(4-pentylphenyl)piperazin-1-yl]sulfonyl}piperidine-4-carboxamide Dihydrochloride] | 0.287 | 0.501
7 | O=C(NO)C1(S(=O)(=O)N2CCN(c3ccc(OCCCC(F)(F)F)cc3)CC2)CCOCC1 [Example 7, N-hydroxy-4-({4-[4-(4,4,4-trifluorobutoxy)phenyl]piperazin-1-yl}sulfonyl)tetrahydro-2H-pyran-4-carboxamide Hydrochloride] | 7.35 | 0.497
8 | COc1ccc(-c2cnc(N3CCN(S(=O)(=O)C4(C(=O)NO)CCOCC4)CC3)nc2)cc1 [Example 8, N-hydroxy-4-({4-[5-(4-methoxyphenyl)pyrimidin-2-yl]piperazin-1-yl}sulfonyl)tetrahydro-2H-pyran-4-carboxamide Hydrochloride] | 1.65 | 1.98
9 | COCCN1CCC(C(=O)NO)(S(=O)(=O)N2CCN(c3ccc(OCCCC(F)(F)F)cc3)CC2)CC1 [Example 9, N-hydroxy-1-(2-methoxyethyl)-4-({4-[4-(4,4,4-trifluorobutoxy)phenyl]piperazin-1-yl}sulfonyl)piperidine-4-carboxamide Dihydrochloride] | 2.76 | 0.223
10 | O=C(NO)C1(S(=O)(=O)N2CCN(c3ccc(OCC4CC4)c(F)c3)CC2)CCN(C2CC2)CC1 [Example 10, 1-cyclopropyl-4-[[4-[4-(cyclopropylmethoxy)-3-fluorophenyl]-1-piperazinyl]sulfonyl]-N-hydroxy-4-piperidinecarboxamide, dihydrochloride] | 0.97 | 0.52
11 | CCCCOc1ccc(N2CCN(S(=O)(=O)C3(C(=O)NO)CCN(CCOC)CC3)CC2)cc1F [Example 11, 4-[[4-(4-butoxy-3-fluorophenyl)-1-piperazinyl]sulfonyl]-N-hydroxy-1-(2-methoxyethyl)-4-piperidinecarboxamide, Dihydrochloride] | 2.67 | 0.71
12 | O=C(NO)C1(S(=O)(=O)N2CCN(c3ccc(-c4ccccc4)c(F)c3)CC2)CCOCC1 [Example 12, 4-{[4-(2-fluoro-1,1′-biphenyl-4-yl)piperazin-1-yl]sulfonyl}-N-hydroxytetrahydro-2H-pyran-4-carboxamide Hydrochloride] | 1 | 0.18
13 | CCCCCc1ccc(N2CCN(S(=O)(=O)C3(C(=O)NO)CCN(CCOC)CC3)CC2)cc1F [Example 13, 4-{[4-(3-fluoro-4-pentylphenyl)piperazin-1-yl]sulfonyl}-N-hydroxy-1-(2-methoxyethyl)piperidine-4-carboxamide Dihydrochloride] | 0.712 | 0.549
14 | COCCOc1ccc(N2CCN(S(=O)(=O)C3(C(=O)NO)CCOCC3)CC2)cc1 [Example 14, N-hydroxy-4-({4-[4-(2-methoxyethoxy)phenyl]piperazin-1-yl}sulfonyl)tetrahydro-2H-pyran-4-carboxamide Hydrochloride] | 20 | 3.84
15 | CCCCCc1ccc(C2CCN(S(=O)(=O)C3(C(=O)NO)CCN(CCOC)CC3)CC2)cc1 [Example 15, N-hydroxy-1-(2-methoxyethyl)-4-{[4-(4-pentylpheyl)piperidin-1-yl]sulfonyl}piperidine-4-carboxamide Hydrochloride] | 0.13 | 0.89
16 | CCCCOc1ccc(C2CCN(S(=O)(=O)C3(C(=O)NO)CCN(CCOC)CC3)CC2)cc1 [Example 16, 4-{[4-(4-butoxyphenyl)piperidin-1-yl]sulfonyl}-N-hydroxy-1-(2-methoxyethyl)piperidine-4-carboxamide Hydrochloride] | 0.47 | 1.24
17 | O=C(NO)C1(S(=O)(=O)N2CCN(c3ccc(CCC(F)(F)C(F)(F)F)cc3)CC2)CCOCC1 [Example 17, N-hydroxy-4-({4-[4-(3,3,4,4,4-pentafluorobutyl)phenyl]piperazin-1-yl}sulfonyl)tetrahydro-2H-pyran-4-carboxamide Hydrochloride] | 1.01 | 0.418
